According to US20090312364A1, “NOVEL CHROMEN-2-ONE DERIVATIVES AND THEIR USE AS MONOAMINE NEUROT[…]-UPTAKE INHIBITORS” (NeuroSearch A/S, priority 2006, published 2009):
Counter-ions that a name gives are not always drawn.

Key:
Type in all cases: biochemical
[1] = target: T1, serotonine (5-HT) reuptake in synaptosomes (Rattus norvegicus, UniProt P31652); assay: In vitro inhibition of 5-HT reuptake in synaptosomes; details: 3H-5-HT, as described in WO 97/16451, read-out: 5-HT-uptake IC50
T1 construct: in synaptosomes as described in WO 97/16451; from tissue
Method: (§1) A number of compounds were tested for their ability to inhibit the reuptake of the monoamine neurotransmitters dopamine (DA), noradrenaline (NA) and serotonine (5-HT) in synaptosomes as described in WO 97/16451.
(§2) The test values are given as IC50 (the concentration (μM) of the test substance which inhibits the specific binding of ^3H-DA, ^3H-NA, or ^3H-5-HT by 50%).

[2] = target: T2, dopamine (DA) reuptake in synaptosomes (Rattus norvegicus, UniProt P23977); assay: In vitro inhibition of DA reuptake in synaptosomes; details: 3H-DA, as described in WO 97/16451, read-out: DA-uptake IC50
T2 construct: in synaptosomes as described in WO 97/16451; from tissue
Method: as §1, §2

[3] = target: T3, noradrenaline (NA) reuptake in synaptosomes (Rattus norvegicus, UniProt Q9WTR4); assay: In vitro inhibition of NA reuptake in synaptosomes; details: 3H-NA, as described in WO 97/16451, read-out: NA-uptake IC50
T3 construct: in synaptosomes as described in WO 97/16451; from tissue
Method: as §1, §2

T3 sequence (Q9WTR4 1-597): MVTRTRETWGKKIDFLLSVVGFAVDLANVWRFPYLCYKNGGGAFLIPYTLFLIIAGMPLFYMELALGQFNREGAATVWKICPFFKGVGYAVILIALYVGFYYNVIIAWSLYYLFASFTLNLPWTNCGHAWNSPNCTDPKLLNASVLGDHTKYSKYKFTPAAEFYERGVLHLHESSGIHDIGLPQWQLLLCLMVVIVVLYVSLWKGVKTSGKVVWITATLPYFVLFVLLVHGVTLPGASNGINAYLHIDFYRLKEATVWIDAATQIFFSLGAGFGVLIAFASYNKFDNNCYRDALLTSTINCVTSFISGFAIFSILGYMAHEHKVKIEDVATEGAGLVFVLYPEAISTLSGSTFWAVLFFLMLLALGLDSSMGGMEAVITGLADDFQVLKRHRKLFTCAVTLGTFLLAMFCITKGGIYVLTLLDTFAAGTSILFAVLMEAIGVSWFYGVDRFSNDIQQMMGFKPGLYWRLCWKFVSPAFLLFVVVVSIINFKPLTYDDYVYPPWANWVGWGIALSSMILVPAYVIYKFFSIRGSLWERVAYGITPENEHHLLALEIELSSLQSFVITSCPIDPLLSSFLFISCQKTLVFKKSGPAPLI
T1 sequence (P31652 whole entry): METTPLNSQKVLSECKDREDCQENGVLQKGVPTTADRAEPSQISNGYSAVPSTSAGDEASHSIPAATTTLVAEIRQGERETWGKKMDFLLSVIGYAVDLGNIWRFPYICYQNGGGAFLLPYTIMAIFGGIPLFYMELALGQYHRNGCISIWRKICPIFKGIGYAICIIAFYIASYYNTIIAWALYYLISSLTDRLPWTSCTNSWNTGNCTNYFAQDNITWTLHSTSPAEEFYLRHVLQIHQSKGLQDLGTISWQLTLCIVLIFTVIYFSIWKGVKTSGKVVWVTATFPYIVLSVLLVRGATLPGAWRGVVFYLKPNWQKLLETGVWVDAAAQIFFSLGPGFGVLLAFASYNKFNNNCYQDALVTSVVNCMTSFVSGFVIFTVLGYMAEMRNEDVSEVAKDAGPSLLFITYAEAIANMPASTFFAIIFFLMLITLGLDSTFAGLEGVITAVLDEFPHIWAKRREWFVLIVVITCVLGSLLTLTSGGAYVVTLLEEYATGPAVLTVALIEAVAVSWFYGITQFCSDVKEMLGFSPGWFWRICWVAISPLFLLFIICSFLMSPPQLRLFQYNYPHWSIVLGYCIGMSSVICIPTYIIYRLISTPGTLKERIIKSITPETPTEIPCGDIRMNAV
T2 sequence (P23977 whole entry): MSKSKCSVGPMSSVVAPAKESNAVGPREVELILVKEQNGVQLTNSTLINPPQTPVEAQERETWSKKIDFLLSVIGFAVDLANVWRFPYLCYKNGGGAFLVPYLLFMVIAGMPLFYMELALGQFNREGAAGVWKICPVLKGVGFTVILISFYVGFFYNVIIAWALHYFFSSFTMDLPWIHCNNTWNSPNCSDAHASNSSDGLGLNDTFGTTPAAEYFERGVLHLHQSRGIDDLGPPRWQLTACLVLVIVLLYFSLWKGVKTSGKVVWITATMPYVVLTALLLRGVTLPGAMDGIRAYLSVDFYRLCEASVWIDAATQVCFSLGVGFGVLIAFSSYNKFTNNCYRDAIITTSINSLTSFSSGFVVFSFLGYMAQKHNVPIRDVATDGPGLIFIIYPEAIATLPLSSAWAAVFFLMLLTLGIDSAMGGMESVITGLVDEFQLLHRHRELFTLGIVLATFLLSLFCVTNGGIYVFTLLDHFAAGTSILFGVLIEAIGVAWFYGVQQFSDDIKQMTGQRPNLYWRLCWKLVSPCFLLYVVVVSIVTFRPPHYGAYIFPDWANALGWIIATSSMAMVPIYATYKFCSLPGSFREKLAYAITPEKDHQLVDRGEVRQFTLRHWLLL

SMILES	IC50 [1] [nM]	IC50 [2] [nM]	IC50 [3] [nM]
O=c1oc2cc(O[C@@H]3C[C@H]4CC[C@@H](C3)N4)ccc2cc1-c1ccccc1 [1st Compound of Example 2, exo-7-[(1S,3S,5R)-(8-Aza-bicyclo[3.2.1]oct-3-yl)oxy]-3-phenyl-chromen-2-one hydrochloric acid salt]	6	48	19
O=c1cc(-c2ccccc2)c2ccc(O[C@@H]3C[C@H]4CC[C@@H](C3)N4)cc2o1 [4th Compound of Example 2, exo-7-[(1S,3S,5R)-(8-Aza-bicyclo[3.2.1]oct-3-yl)oxy]-4-phenyl-chromen-2-one hydrochloric acid salt]	29	> 1000	> 1000
O=c1oc2cc(O[C@@H]3C[C@H]4CC[C@@H](C3)N4)ccc2cc1-c1cccc(F)c1 [6th Compound of Example 2, exo-7-[(1S,3S,5R)-(8-Aza-bicyclo[3.2.1]oct-3-yl)oxy]-3-(3-fluoro-phenyl)-chromen-2-one hydrochloric acid salt]	5.8	28	26
